# pIC50: −log10 of the molar value.
# Columns and labels:
# Assay type in all cases: biochemical
# human JAK2 (aa 826-1132) = molecular target: T1, human JAK2 (aa 826-1132) (Homo sapiens, UniProt O60674); assay: In vitro JAK kinase assay (TR-FRET), JAK2; conditions: catalytic domain GST-fusion; ATP 0.2 μM; peptide 20 nM; 30 minutes at room temperature
# T1 construct: JAK2 (aa 826-1132); GST (N); purchased Carna Biosciences; host or cells: baculovirus expression system
# Description: (§1) Compounds were screened for their ability to inhibit JAK1, JAK2 and JAK3 using the assays as indicated below.
# (§2) The catalytic domains of human JAK1 (aa 850-1154), JAK2 (aa 826-1132), JAK3 (aa 795-1124) and Tyk2 (aa 871-1187) were expressed as N-terminal GST-fusion proteins using a baculovirus expression system and were purchased from Carna Biosciences. The enzymatic activity was assayed using as substrate a biotinylated peptide, poly (GT)-Biotin (CisBio). The peptide concentration in the reactions was 60 nM for JAK1, 20 nM for JAK2, 140 nM for JAK3 and 50 nM for Tyk2. The degree of phosphorylation was detected by TR-FRET (time-resolved fluorescence energy transfer). IC50s of compounds were measured for each kinase in a reaction mixture containing the enzyme, ATP and the peptide in 8 mM MOPS (pH 7.0), 10 mM MgCl2, 0.05% β-mercaptoethanol, 0.45 mg/ml BSA. The ATP concentration in the reactions was 3 μM for JAK1, 0.2 μM for JAK2, 0.6 μM for JAK3 and 1.8 μM for Tyk2. The enzymatic reactions took place for 30 minutes at room temperature. Then, the reactions were stopped with 20 μL of quench detection buffer (50 mM HEPES, 0.5 M KF, EDTA 0.25 M, 0.1% (w/v) BSA, pH 7.5) containing 0.115 μg/mL of anti-phosphoTyr (PT66)-Cryptate (CisBio) and a variable concentration of SA-XL665 (CisBio) to keep the SA-B ratio constant. Incubate for 3 h and read on Victor 2V spectrofluorometer (PerkinElmer) set to read fluorescence resonance energy transfer.
# human JAK1 (aa 850-1154) = molecular target: T2, human JAK1 (aa 850-1154) (Homo sapiens, UniProt P23458); assay: In vitro JAK kinase assay (TR-FRET), JAK1; conditions: catalytic domain GST-fusion; ATP 3 μM; peptide 60 nM; 30 minutes at room temperature
# T2 construct: human JAK1 (aa 850-1154); GST (N); purchased Carna Biosciences; host or cells: baculovirus expression system
# Description: as §1, §2
# human JAK3 (aa 795-1124) = molecular target: T3, human JAK3 (aa 795-1124) (Homo sapiens, UniProt P52333); assay: In vitro JAK kinase assay (TR-FRET), JAK3; conditions: catalytic domain GST-fusion; ATP 0.6 μM; peptide 140 nM; 30 minutes at room temperature
# T3 construct: JAK3 (aa 795-1124); GST (N); purchased Carna Biosciences; host or cells: baculovirus expression system
# Description: as §1, §2
# T3 sequence (P52333 795-1124): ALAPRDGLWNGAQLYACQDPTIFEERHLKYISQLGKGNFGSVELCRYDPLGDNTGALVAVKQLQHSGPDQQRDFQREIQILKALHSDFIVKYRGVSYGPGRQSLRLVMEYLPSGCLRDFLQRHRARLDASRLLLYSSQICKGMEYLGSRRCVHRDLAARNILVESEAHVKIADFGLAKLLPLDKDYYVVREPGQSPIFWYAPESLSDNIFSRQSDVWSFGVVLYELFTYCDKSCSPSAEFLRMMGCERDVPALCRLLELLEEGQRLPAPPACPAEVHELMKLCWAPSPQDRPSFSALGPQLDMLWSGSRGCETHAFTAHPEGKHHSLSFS
# T1 sequence (O60674 826-1132): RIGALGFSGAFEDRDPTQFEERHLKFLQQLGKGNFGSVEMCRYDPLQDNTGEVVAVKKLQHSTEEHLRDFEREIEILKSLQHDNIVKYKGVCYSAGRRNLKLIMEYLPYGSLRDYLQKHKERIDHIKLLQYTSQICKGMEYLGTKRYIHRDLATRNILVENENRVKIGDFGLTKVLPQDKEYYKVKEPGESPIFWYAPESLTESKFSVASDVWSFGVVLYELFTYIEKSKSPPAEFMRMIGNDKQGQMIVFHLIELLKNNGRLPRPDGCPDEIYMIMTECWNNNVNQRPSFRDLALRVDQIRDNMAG
# T2 sequence (P23458 850-1154): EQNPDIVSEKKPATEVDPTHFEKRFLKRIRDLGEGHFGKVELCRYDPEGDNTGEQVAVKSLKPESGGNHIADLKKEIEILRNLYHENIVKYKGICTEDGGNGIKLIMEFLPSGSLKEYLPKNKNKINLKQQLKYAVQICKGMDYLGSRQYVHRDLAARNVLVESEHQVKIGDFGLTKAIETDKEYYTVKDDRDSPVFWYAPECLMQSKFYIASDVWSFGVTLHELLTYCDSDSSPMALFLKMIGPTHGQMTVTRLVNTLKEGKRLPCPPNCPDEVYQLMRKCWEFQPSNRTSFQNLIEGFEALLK
Compound,pIC50 (human JAK2 (aa 826-1132)),pIC50 (human JAK1 (aa 850-1154)),pIC50 (human JAK3 (aa 795-1124))
"Nc1cnc(-c2cnn3ccncc23)nc1NC1CCOCC1 [Example 35, 2-(Pyrazolo[1,5-a]pyrazin-3-yl)-N^4-(tetrahydro-2H-pyran-4-yl)pyrimidine-4,5-diamine]",> 7.00,6.00 to 7.00,6.00 to 7.00
"N#CCC(=O)N1CCC[C@@H](Nc2ccnc(-c3cnn4ccc(C#N)cc34)n2)C1 [Example 14, 3-(4-{[(3R)-1-(Cyanoacetyl)piperidin-3-yl]amino}pyrimidin-2-yl)pyrazolo[1,5-a]pyridine-5-carbonitrile]",> 7.00,6.00 to 7.00,> 7.00
"N#Cc1ccn2ncc(-c3nccc(N[C@H]4CC[C@H](O)CC4)n3)c2c1 [Example 19, 3-(4-((Trans)-4-Hydroxycyclohexylamino)pyrimidin-2-yl)pyrazolo[1,5-a]pyridine-5-carbonitrile]",> 7.00,6.00 to 7.00,> 7.00
"O=C(CC(F)(F)F)N1CCC[C@@H](Nc2nc(-c3cnn4ccncc34)ncc2F)C1 [Example 30, 5-Fluoro-2-pyrazolo[1,5-a]pyrazin-3-yl-N-[(3R)-1-(3,3,3-trifluoropropanoyl)piperidin-3-yl]pyrimidin-4-amine]",> 7.00,6.00 to 7.00,> 7.00

# The remaining lines, values ahead:
pIC50 (human JAK2 (aa 826-1132)),pIC50 (human JAK1 (aa 850-1154)),pIC50 (human JAK3 (aa 795-1124)),Compound
> 7.00,< 6.00,6.00 to 7.00,"N#Cc1ccn2ncc(-c3nccc(NCC(F)(F)F)n3)c2c1 [Example 7, 3-{4-[(2,2,2-Trifluoroethyl)amino]pyrimidin-2-yl}pyrazolo[1,5-a]pyridine-5-carbonitrile]"
> 7.00,6.00 to 7.00,> 7.00,"COC[C@H](C)Nc1ccnc(-c2cnn3ccc(C#N)cc23)n1 [Example 5, 3-(4-{[(1S)-2-Methoxy-1-methylethyl]amino}pyrimidin-2-yl)pyrazolo[1,5-a]pyridine-5-carbonitrile]"
> 7.00,> 7.00,> 7.00,"C[C@H](Nc1nc(-c2cnn3ccncc23)ncc1Cl)c1ccc(F)cn1 [Example 37, (S)-5-Chloro-N-(1-(5-fluoropyridin-2-yl)ethyl)-2-(pyrazolo[1,5-a]pyrazin-3-yl)pyrimidin-4-amine]"
> 7.00,> 7.00,> 7.00,"C[C@H](Nc1ccnc(-c2cnn3ccncc23)n1)c1ccccc1 [Example 21, (S)—N-(1-phenylethyl)-2-(pyrazolo[1,5-a]pyrazin-3-yl)pyrimidin-4-amine]"
> 7.00,6.00 to 7.00,> 7.00,"CN(c1ccnc(-c2cnn3ccncc23)n1)[C@@H]1CCCN(C(=O)CC#N)C1 [Example 27, 3-{(3R)-3-[Methyl(2-pyrazolo[1,5-a]pyrazin-3-ylpyrimidin-4-yl)amino]piperidin-1-yl}-3-oxopropanenitrile]"
> 7.00,6.00 to 7.00,> 7.00,"N#Cc1ccc(N2CCC[C@@H](Nc3ccnc(-c4cnn5ccncc45)n3)C2)nc1 [Example 25, 6-{(3R)-3-[(2-Pyrazolo[1,5-a]pyrazin-3-ylpyrimidin-4-yl)amino]piperidin-1-yl}nicotinonitrile]"
